From patent US9632085B2, “Rapid antibiotic susceptibility testing” (PRESIDENT AND FELLOWS OF HARVARD COLLEGE, priority 2012, dated 2017)

Experiments:
DH5alpha E. coli = assay: FcMBL bead captured bacteria cultured 2 hours in LB with or without antibiotic, quantified on LB Agar plates; type: cell-based; conditions: 2 hours at 37° C. in LB; Carbenicillin 100 μg/ml (FIG. 3 legend); range of titers down to 300 colonies
Experimental: In preliminary studies, the inventors tested the discrimination of the antibiotic susceptibility assay described herein with a range of titers of DH5alpha E. coli (corresponding to blood titers from a range of sepsis patients from septic shock to SIRS) FcMBL bead captured bacteria were cultured for 2 hours at 37° C. with vigorous agitation/aeration in Luria Broth (LB) or in LB supplemented with the bacteriocidal antibiotic Carbenicillin or the bacteriostatic antibiotic Spectomycin. The bacteria were quantified on LB Agar plates. In all cases, the inventors were able to discriminate between the growth in LB compared with growth in LB with bacteriocidal or bacteriostatic antibiotic (see FIG. 3).

E. coli = assay: Antibiotic susceptibility from single bacterium: FcMBL bead capture, gel matrix, resazurin/Sytox Green 11 live-dead imaging; type: cell-based; conditions: kanamycin at 50 μg/ml in BHI; captured E. coli grown in gel matrix; time after antibiotic addition
Experimental: Bacteria in a biological sample were captured by FcMBL coated magnetic beads. The bead/bacteria were washed and added to a microscope compatible surface (for example, plasma treated coverslip or glass bottom microplates) and immobilized by an underlying magnet. A low melt agarose gel 37° C. containing growth media (BHI), resazurin (a stain for labeling live cells), and Sytox Green 11 (a stain for labeling dead cells) was overlaid on the bacteria-bound FcMBL magnetic beads to immobilize and/or secure the bacteria in place. In some embodiments where the bead/bacteria were spotted on glass bottom microplates, the wells were filled with growth medium containing fluorescent stains for live and/or dead cells. The captured bacteria were incubated on the slide or in the wells for about 1-2 hours at about 36-37° C. and imaged by microscopy, e.g., fluorescent microscopy. Live cells could be identified by resorufin (metabolized resazurin) stain and coordinates of the live cells could be determined and stored for iterative imaging. […] Bacteria can be observed for, for example, growth in the presence of the antibiotics (to determine the resistance of the bacteria to the particular antibiotics), cell death determined by fluorescent stain for dead cells (to determine bactericidal activity), and/or inhibition of growth (to determine bacteriostatic activity). […]

Structure (SMILES)	bacterial counts compared with LB and LB with bacteriostatic antibiotic (DH5alpha E. coli)	color change from red-resorufin to green Sytox green 11 (cell death) observed for some of the bacteria (E. coli)	complete effect for all cells in the tracked fields of vision (E. coli)
CC1(C)S[C@@H]2[C@H](NC(=O)C(C(=O)O)c3ccccc3)C(=O)N2[C@H]1C(=O)O (stereo partly drawn) [Carbenicillin]	lowest of the three conditions tested		
NC[C@H]1O[C@H](O[C@H]2[C@H](O)[C@@H](O[C@H]3O[C@H](CO)[C@@H](O)[C@H](N)[C@H]3O)[C@H](N)C[C@@H]2N)[C@H](O)[C@@H](O)[C@@H]1O [Kanamycin]		≤ 5 min	30 to 40 min
